Assays:
TLR7 = TLR7 (Homo sapiens (Human), UniProt Q9NYK1); assay: TLR7 agonist bioactivity: induction of IFNα protein in pDC-enriched PBMC cultures (ELISA, 24 h); type: cell-based; conditions: for TLR7 (% of Compound No. 63-00 EC50 Value): EC50 expressed as percentage of EC50 of Compound No. 63-00; for EC50: IFNα induction, pDC-enriched human PBMC, 24 hours
Description: Plasmacytoid dendritic cell (pDC)—enriched peripheral blood mononuclear cells (PBMCs) were prepared from the blood of a series of human donors (3-5 donors/experiment). PBMCs were isolated using Ficoll-Paque Premium® (GE Healthcare, Chicago Ill.) using methods well known to those in the art. pDCs were magnetically isolated from the total recovered PBMC population using CD304 (BDCA-4/Neuropilin-1) microbeads (Miltenyi Biotec, San Diego Calif.), according to the manufacturer's instructions. Isolated pDCs were then added back to between 1 and 2×10^8 of the corresponding donor's PBMCs for relative enrichment of this cell type. […] Culture supernatants were collected and interferon-alpha (IFNα) protein levels were measured by ELISA (MabTech, Cincinnati Ohio), according to the manufacturer's instructions.

serum IL-6 and IL-12p40 = assay: In vivo systemic immune activation assay: serum IL-6 and IL-12p40 by ELISA after single subcutaneous injection; parameters: species or system mice; conditions: 5 μg subcutaneously in footpad, 95% sesame oil/5% ethanol, ± SEM
Description: Small molecule TLR7 and TLR7/8 agonists derived from the 1H-imidazo[4,5-c]quinoline privileged template (see e.g., Imiquimod, Resiquimod) are known to rapidly distribute to the systemic compartment following intratumoral, subcutaneous, or intramuscular injection. Broad systemic distribution of these agonist compounds in wild-type mice induces TLR7-dependent cytokine responses, primarily in spleen and liver cells, which can subsequently be detected in the serum within 3-6 hours. The rapid increase in serum cytokine biomarkers (e.g., IL-6 and IL-12p40) can be used to assess the kinetics of systemic distribution of a locally administered TLR agonist.
The kinetics of distribution of pharmaceutical compositions comprised of Compound Nos. 63-00, 63-17, or 63-10 formulated in 95% sesame oil/5% ethanol (v/v) were assessed following a single subcutaneous injection in wild-type mice. All in vivo procedures were conducted in accordance with approved Institutional Animal Care and Use Committee (IACUC) protocols. The animals were housed in a facility that is accredited by the Association for Accreditation and Laboratory Animal Care (AALAC, Frederick Md.). Wild-type female BALB/c mice (15-20 gm) were obtained from Envigo (Hayward, Calif.) and acclimated for 2-3 days prior to use.
The pharmaceutical compositions were made with the three compounds, at a final concentration of 200 μg/mL, in a manner similar to that described in Example B2-1. At T=0, groups of 3 mice were anesthetized with 1% isoflurane and injected subcutaneously in the right footpad with 5 μg of each of the three compounds, or a vehicle control, in 25 uL of 95% sesame oil/5% ethanol (v/v). Then, at T=3, 6, and 24 hours, three animals from each group were anesthetized with 1% isoflurane to facilitate blood collection by cardiac puncture. Samples were processed to serum, and stored at −20° C. for further analysis.

CT26 colon carcinoma [1] = assay: Anti-tumor efficacy in combination with anti-PD-1 antibody in dual flank CT26 colon carcinoma-bearing mice; type: in vivo; conditions: for tumor growth inhibition in the injected tumor (right flank) compared to the anti-PD-1 treatment alone / tumor growth inhibition in the distal tumor (left flank) compared to the anti-PD-1 treatment alone: 5,000 ng single intratumoral dose day 14, in combination with anti-PD-1; for tumor growth inhibition in the distal tumor (left flank) compared to the anti-PD-1 treatment alone: day 29; for injected tumor growth inhibition, difference from the anti-PD-1 treatment control at day 29: 5,000 ng single intratumoral dose, in combination with anti-PD-1, Kruskall-Wallis/Dunn
Description: All in vivo procedures were conducted in accordance with approved IACUC protocols. The animals were housed in a facility that is accredited by the AALAC. Wild-type female Balb/c mice (15-20 g) were obtained from Envigo (Hayward, Calif.) and acclimated for 2-3 days prior to use.
The pharmaceutical compositions were made using Compound No. 63-10 or 63-33 at final concentrations of 50,000 ng/mL in a manner similar to that described for Example B2-1. […] On day 0, mice were anesthetized with 1% isoflurane, and 80,000 CT26 tumor cells in 200 uL of RMPI-1640 culture media plus 2.5% fetal bovine serum were injected subcutaneously in both the right and left flanks. Tumors (left and right) were allowed to grow until day 8, when the right and left flank tumor sizes had reached approximately 35 mm^3, at which point mice were injected intraperitoneally with 250 μg of anti-PD-1 antibody formulated in phosphate buffered saline or a phosphate buffered saline vehicle control. The anti-PD-1 treatments were repeated on experimental days 12, 15, 19, 22, and 26. On experimental day 14, when the right (injected) and left (distal) flank tumors had reached approximately 100 mm^3, mice were randomized into treatment groups. […] Tumor sizes were measured twice weekly from days 14 through day 29 with calipers, with tumor volumes calculated using the formula: length, multiplied by width, multiplied by width, divided by 2.

TLR8 = TLR8 (Homo sapiens (Human), UniProt Q9NR97); assay: TLR8 agonist bioactivity: induction of TNFα protein in monocyte cultures (ELISA, 24 h); type: cell-based; conditions: for EC50: TNFα induction, human monocytes, 24 hours; for fold increase of TLR8 agonist potency compared to Compound No. 63-00 (IMDQ): more potent than IMDQ
Description: Monocytes were magnetically isolated from PBMCs, prepared as described above, following labeling with CD14 microbeads (Miltenyi Biotec, San Diego Calif.), according to the manufacturer's instructions. […] Culture supernatants were collected and tumor necrosis factor alpha (TNFα) protein levels were measured by ELISA (MabTech, Cincinnati Ohio), according to the manufacturer's instructions.

CT26 colon carcinoma [2] = assay: Anti-tumor efficacy, repeated intratumoral dosing in CT26 colon carcinoma-bearing wild-type mice; type: in vivo; conditions: 0.5-20 μg in 95% sesame oil/5% ethanol
Description: The effect of repeated weekly doses of intratumorally delivered pharmaceutical compositions comprised of Compound No. 63-10, 63-18, or 63-33 formulated in 95% sesame oil/5% ethanol (v/v) on tumor growth inhibition was assessed in syngeneic CT26 colon carcinoma-bearing Balb/c mice. All in vivo procedures were conducted in accordance with approved Institutional Animal Care and Use Committee (IACUC) protocols. The animals were housed in a facility that is accredited by the Association for Accreditation and Laboratory Animal Care (AALAC, Frederick, Md.). Wild-type female Balb/c mice (15-20 gm) were obtained from Envigo (Hayward, Calif.) and acclimated for 2-3 days prior to use.
The pharmaceutical compositions were made with the three compounds at final concentrations of 5, 50, and 200 μg/mL in a manner similar to that described in Example B2-1. […] On day 0, mice were anesthetized with 1% isoflurane and 80,000 CT26 tumor cells in 200 uL of RMPI-1640 culture media plus 2.5% fetal bovine serum were injected subcutaneously in the right flank. Tumors were allowed to grow until they were ˜35 mm^3, at which point animals were assigned to groups to begin treatment. Mice were injected weekly for 4 weeks intratumorally with 100 uL of a pharmaceutical composition comprising 20, 5, or 0.5 μgs of Compound No. 63-10, or 20 or 5 μgs of Compound Nos. 63-18, or 63-33 formulated in 95% sesame oil/5% ethanol (v/v), or a vehicle control, twice weekly for 3 weeks (experimental days 9, 12, 16, 19, 23, and 26). The TLR9 CpG agonist was injected intratumorally with 100 μL of a pharmaceutical composition comprised of 50 μgs of compound formulated in phosphate buffered saline on the same dosing schedule. Tumor sizes were measured twice weekly from days 8 through day 30 with calipers, with tumor volumes calculated using the formula: length, multiplied by width, multiplied by width, divided by 2.

Chain of TLR7 (Q9NYK1 27-1049): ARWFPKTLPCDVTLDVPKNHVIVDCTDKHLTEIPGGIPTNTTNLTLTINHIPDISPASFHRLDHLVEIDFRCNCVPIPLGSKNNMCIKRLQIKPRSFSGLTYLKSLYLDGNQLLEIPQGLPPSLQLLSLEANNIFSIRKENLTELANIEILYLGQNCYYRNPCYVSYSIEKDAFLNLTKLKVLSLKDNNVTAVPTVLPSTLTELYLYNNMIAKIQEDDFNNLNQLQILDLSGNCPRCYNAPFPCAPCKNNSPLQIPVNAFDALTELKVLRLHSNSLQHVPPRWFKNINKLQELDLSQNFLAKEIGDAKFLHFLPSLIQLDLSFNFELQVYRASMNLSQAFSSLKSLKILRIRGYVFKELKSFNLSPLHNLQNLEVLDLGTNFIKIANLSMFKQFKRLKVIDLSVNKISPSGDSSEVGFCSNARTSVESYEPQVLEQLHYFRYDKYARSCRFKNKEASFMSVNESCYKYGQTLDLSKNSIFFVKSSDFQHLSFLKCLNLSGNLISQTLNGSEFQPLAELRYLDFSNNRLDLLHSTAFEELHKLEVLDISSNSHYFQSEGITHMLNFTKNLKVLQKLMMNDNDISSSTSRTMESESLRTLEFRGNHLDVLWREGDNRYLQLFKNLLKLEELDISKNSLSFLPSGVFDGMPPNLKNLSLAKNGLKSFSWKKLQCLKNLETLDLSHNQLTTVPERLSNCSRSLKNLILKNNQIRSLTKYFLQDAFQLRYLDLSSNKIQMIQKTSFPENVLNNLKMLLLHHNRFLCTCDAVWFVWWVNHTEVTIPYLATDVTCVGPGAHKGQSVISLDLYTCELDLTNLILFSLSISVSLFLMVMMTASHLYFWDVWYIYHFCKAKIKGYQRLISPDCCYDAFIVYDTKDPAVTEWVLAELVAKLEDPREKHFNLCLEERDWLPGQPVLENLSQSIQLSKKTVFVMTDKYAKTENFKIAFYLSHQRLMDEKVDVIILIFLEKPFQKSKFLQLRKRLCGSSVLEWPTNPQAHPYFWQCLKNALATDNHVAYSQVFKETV
Chain of TLR8 (Q9NR97 27-1041): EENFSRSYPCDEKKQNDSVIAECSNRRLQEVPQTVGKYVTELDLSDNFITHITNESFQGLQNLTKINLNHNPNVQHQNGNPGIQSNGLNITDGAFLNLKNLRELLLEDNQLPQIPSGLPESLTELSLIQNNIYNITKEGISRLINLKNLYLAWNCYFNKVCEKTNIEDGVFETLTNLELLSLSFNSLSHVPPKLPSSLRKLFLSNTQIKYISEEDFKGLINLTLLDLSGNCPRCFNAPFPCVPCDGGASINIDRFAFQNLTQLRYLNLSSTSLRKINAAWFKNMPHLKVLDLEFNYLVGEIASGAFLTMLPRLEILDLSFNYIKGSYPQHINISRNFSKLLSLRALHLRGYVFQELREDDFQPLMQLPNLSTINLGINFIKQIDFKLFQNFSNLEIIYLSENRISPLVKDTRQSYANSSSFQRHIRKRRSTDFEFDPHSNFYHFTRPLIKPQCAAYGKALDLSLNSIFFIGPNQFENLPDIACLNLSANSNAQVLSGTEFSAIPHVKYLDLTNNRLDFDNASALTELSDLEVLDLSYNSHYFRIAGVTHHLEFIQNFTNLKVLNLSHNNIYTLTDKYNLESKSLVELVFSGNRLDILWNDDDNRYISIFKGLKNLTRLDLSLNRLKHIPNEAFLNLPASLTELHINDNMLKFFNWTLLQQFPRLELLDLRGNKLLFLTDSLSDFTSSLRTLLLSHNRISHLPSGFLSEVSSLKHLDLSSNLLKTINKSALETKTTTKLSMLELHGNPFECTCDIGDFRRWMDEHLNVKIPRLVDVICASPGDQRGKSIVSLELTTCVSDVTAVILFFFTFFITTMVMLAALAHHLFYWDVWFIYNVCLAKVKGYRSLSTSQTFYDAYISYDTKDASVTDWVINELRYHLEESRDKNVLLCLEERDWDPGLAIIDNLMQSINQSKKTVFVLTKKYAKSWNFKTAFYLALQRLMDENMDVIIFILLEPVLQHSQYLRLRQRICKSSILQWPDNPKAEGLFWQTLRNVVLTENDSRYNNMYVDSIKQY

SMILES | TLR7 (% of Compound No. 63-00 EC50 Value) (TLR7) [%] | serum IL-6 (serum IL-6 and IL-12p40; 3 hours) [pg/mL] | serum IL-12p40 (serum IL-6 and IL-12p40; 3 hours) | serum IL-6 (serum IL-6 and IL-12p40; 6 hours) [pg/mL] | serum IL-12p40 (serum IL-6 and IL-12p40; 6 hours) | serum IL-6 (serum IL-6 and IL-12p40; 24 hours) [pg/mL] | serum IL-12p40 (serum IL-6 and IL-12p40; 24 hours) | tumor growth inhibition in the injected tumor (right flank) compared to the anti-PD-1 treatment alone (CT26 colon carcinoma [1]) | tumor growth inhibition in the distal tumor (left flank) compared to the anti-PD-1 treatment alone (CT26 colon carcinoma [1]) | injected tumor growth inhibition, difference from the anti-PD-1 treatment control at day 29 (CT26 colon carcinoma [1]) | EC50 (TLR7) [nM] | EC50 (TLR8) [nM] | fold increase of TLR8 agonist potency compared to Compound No. 63-00 (IMDQ) (TLR8) | CT26 tumor growth control compared to the vehicle control (CT26 colon carcinoma [2]) | fold loss of TLR7 agonist potency compared to Compound No. 63-00 (IMDQ) (TLR7; less potent than IMDQ) [fold] | TLR8 (% of Compound No. 63-00 EC50 Value) (TLR8; EC50 expressed as percentage of EC50 of Compound No. 63-00) [%]
CCCCc1nc2c(N)nc3ccccc3c2n1Cc1ccc(CN)cc1 [Compound No. 63-00, 1-(4-(aminomethyl)benzyl)-2-butyl-1H-imidazo[4,5-c]quinolin-4-amine, reference compound] | 100 | 772 ± 141 | 139,767±31,024 pg/mL | 160 ± 19 | 142,359±22,350 pg/mL | 32 ± 2 | 7,796±1,545 pg/mL | greater tumor growth inhibition | trend towards greater tumor growth inhibition | significantly different | – | – | – | – | – | –
CCCCCCNCc1ccc(Cn2c(CCCC)nc3c(N)nc4ccccc4c32)cc1 [Compound No. 63-18, 2-butyl-1-(4-((hexylamino)methyl)benzyl)-1H-imidazo[4,5-c]quinolin-4-amine] | – | – | – | – | – | – | – | – | – | – | 15 | 213 | slightly improved | robust CT26 tumor growth control | – | –
CCCCc1nc2c(N)nc3ccccc3c2n1Cc1ccc(CNCCC2CC2)cc1 [Compound No. 63-33, 2-butyl-1-(4-(((2-cyclopropylethyl)amino)methyl)benzyl)-1H-imidazo[4,5-c]quinolin-4-amine] | 290 | – | – | – | – | – | – | greater tumor growth inhibition | trend towards greater tumor growth inhibition | significantly different | 4 | 75 | 2.9 fold | robust CT26 tumor growth control | 4 | 41

Source: US11124510B2, “Alkyl chain modified imidazoquinoline TLR7/8 agonist compounds and uses thereof” (Dynavax Technologies Corporation, priority 2017, dated 2021)
